{"source": "patent US10670605B2", "about": "“Cysteine reactive probes and uses thereof” (The Scripps Research Institute, priority 2015, dated 2020)", "key": {"[1]": {"molecular_target": "T1, PKCθ C14/C17 (Homo sapiens, UniProt Q04759)", "T1 construct": "endogenous in cells; host or cells: primary human T cells", "T1 sequence (Q04759 whole entry)": "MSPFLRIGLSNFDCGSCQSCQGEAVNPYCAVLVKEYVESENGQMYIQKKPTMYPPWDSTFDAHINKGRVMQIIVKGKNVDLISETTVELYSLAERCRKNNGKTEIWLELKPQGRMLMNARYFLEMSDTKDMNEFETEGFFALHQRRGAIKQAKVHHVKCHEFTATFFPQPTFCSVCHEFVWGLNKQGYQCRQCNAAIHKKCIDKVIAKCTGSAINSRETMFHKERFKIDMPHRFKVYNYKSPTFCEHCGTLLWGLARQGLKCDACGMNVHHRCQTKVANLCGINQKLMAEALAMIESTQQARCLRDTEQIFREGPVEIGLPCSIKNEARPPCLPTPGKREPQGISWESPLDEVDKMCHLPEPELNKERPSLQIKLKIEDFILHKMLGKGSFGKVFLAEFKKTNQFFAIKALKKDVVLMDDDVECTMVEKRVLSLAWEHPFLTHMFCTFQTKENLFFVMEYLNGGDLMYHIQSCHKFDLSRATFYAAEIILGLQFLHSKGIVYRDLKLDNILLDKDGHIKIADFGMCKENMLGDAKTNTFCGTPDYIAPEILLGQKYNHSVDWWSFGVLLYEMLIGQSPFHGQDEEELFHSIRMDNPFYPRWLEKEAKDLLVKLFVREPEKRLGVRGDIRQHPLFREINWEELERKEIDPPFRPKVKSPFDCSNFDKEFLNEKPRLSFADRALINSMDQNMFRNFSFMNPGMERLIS", "test": "isoTOP-ABPP of compound-treated primary human T cells", "format": "cell-based", "settings": "for R value (DMSO/DMF): PRKCQ C14 (Q04759)", "method": "(§1) Cells were lysed by sonication and diluted to a concentration of 2 mg protein/mL. Protein concentrations were measured with the Bio-Rad DC™ protein assay reagents A and B (5000113, 5000114; Bio-Rad). 500 μL of proteome sample was treated with 100 μM of IA-alkyne probe using […] of a 10 mM DMSO stock. The labeling reactions were incubated at room temperature for 1 h upon which time the samples were conjugated to isotopically-labeled TEV-cleavable tags (TEV tags) by copper-catalyzed azide-alkyne cycloaddition (CuACC or ‘click chemistry’). 60 μL of heavy click chemistry reaction mixture was added to the DMSO-treated control sample and 60 μL of the light reaction mixture was added to the compound-treated sample. The click reaction mixture comprised TEV tags (10 μL of a 5 mM stock, light (fragment treated) or heavy (DMSO treated)), CuSO4 (10 μL of a 50 mM stock in water), and TBTA (30 μL of a 1.7 mM stock in 4:1 tBuOH:DMSO). To this was added TCEP (10 μL of a 50 mM stock). The reaction was performed for 1 h at room temperature.\n(§2) The resulting pellets were resuspended in 500 μL of cold methanol by sonication and the heavy and light samples combined pairwise. Combined pellets were then washed with cold MeOH, after which the pellet was solubilized in PBS containing 1.2% SDS by sonication. The samples were heated at 90° C. for 5 min and subjected to streptavidin enrichment of probe-labeled proteins, sequential on-bead trypsin and TEV digestion, and liquid chromatography-tandem mass spectrometry (LC-MS/MS) according to the published isoTOP-ABPP protocols.\n(§3) The quantification of heavy/light ratios (isoTOP-ABPP ratios, R values) was performed by in-house CIMAGE software using default parameters (3 MS1's per peak and signal to noise threshold of 2.5). Site-specific engagement of electrophilic compounds was assessed by blockade of IA-alkyne probe labeling. […] Overlapping peptides with the same labeled cysteine (for example, same local sequence around the labeled cysteines but different charge states, MudPIT segment numbers, or tryptic termini) were grouped together, and the median ratio from each group was recorded as the R value of the peptide for that run."}, "[2]": {"molecular_target": "T2, PKCθ C322 (Homo sapiens, UniProt Q04759)", "T2 construct": "endogenous in cells; host or cells: primary human T cells", "test": "isoTOP-ABPP of compound-treated primary human T cells", "format": "cell-based", "settings": "50 μM, 4 h", "method": "as §1, §2, §3"}, "[3]": {"molecular_target": "T3, PRKDC C4045 (Homo sapiens, UniProt P78527)", "T3 construct": "endogenous in cells; host or cells: primary human T cells", "T3 sequence (P78527 whole entry)": "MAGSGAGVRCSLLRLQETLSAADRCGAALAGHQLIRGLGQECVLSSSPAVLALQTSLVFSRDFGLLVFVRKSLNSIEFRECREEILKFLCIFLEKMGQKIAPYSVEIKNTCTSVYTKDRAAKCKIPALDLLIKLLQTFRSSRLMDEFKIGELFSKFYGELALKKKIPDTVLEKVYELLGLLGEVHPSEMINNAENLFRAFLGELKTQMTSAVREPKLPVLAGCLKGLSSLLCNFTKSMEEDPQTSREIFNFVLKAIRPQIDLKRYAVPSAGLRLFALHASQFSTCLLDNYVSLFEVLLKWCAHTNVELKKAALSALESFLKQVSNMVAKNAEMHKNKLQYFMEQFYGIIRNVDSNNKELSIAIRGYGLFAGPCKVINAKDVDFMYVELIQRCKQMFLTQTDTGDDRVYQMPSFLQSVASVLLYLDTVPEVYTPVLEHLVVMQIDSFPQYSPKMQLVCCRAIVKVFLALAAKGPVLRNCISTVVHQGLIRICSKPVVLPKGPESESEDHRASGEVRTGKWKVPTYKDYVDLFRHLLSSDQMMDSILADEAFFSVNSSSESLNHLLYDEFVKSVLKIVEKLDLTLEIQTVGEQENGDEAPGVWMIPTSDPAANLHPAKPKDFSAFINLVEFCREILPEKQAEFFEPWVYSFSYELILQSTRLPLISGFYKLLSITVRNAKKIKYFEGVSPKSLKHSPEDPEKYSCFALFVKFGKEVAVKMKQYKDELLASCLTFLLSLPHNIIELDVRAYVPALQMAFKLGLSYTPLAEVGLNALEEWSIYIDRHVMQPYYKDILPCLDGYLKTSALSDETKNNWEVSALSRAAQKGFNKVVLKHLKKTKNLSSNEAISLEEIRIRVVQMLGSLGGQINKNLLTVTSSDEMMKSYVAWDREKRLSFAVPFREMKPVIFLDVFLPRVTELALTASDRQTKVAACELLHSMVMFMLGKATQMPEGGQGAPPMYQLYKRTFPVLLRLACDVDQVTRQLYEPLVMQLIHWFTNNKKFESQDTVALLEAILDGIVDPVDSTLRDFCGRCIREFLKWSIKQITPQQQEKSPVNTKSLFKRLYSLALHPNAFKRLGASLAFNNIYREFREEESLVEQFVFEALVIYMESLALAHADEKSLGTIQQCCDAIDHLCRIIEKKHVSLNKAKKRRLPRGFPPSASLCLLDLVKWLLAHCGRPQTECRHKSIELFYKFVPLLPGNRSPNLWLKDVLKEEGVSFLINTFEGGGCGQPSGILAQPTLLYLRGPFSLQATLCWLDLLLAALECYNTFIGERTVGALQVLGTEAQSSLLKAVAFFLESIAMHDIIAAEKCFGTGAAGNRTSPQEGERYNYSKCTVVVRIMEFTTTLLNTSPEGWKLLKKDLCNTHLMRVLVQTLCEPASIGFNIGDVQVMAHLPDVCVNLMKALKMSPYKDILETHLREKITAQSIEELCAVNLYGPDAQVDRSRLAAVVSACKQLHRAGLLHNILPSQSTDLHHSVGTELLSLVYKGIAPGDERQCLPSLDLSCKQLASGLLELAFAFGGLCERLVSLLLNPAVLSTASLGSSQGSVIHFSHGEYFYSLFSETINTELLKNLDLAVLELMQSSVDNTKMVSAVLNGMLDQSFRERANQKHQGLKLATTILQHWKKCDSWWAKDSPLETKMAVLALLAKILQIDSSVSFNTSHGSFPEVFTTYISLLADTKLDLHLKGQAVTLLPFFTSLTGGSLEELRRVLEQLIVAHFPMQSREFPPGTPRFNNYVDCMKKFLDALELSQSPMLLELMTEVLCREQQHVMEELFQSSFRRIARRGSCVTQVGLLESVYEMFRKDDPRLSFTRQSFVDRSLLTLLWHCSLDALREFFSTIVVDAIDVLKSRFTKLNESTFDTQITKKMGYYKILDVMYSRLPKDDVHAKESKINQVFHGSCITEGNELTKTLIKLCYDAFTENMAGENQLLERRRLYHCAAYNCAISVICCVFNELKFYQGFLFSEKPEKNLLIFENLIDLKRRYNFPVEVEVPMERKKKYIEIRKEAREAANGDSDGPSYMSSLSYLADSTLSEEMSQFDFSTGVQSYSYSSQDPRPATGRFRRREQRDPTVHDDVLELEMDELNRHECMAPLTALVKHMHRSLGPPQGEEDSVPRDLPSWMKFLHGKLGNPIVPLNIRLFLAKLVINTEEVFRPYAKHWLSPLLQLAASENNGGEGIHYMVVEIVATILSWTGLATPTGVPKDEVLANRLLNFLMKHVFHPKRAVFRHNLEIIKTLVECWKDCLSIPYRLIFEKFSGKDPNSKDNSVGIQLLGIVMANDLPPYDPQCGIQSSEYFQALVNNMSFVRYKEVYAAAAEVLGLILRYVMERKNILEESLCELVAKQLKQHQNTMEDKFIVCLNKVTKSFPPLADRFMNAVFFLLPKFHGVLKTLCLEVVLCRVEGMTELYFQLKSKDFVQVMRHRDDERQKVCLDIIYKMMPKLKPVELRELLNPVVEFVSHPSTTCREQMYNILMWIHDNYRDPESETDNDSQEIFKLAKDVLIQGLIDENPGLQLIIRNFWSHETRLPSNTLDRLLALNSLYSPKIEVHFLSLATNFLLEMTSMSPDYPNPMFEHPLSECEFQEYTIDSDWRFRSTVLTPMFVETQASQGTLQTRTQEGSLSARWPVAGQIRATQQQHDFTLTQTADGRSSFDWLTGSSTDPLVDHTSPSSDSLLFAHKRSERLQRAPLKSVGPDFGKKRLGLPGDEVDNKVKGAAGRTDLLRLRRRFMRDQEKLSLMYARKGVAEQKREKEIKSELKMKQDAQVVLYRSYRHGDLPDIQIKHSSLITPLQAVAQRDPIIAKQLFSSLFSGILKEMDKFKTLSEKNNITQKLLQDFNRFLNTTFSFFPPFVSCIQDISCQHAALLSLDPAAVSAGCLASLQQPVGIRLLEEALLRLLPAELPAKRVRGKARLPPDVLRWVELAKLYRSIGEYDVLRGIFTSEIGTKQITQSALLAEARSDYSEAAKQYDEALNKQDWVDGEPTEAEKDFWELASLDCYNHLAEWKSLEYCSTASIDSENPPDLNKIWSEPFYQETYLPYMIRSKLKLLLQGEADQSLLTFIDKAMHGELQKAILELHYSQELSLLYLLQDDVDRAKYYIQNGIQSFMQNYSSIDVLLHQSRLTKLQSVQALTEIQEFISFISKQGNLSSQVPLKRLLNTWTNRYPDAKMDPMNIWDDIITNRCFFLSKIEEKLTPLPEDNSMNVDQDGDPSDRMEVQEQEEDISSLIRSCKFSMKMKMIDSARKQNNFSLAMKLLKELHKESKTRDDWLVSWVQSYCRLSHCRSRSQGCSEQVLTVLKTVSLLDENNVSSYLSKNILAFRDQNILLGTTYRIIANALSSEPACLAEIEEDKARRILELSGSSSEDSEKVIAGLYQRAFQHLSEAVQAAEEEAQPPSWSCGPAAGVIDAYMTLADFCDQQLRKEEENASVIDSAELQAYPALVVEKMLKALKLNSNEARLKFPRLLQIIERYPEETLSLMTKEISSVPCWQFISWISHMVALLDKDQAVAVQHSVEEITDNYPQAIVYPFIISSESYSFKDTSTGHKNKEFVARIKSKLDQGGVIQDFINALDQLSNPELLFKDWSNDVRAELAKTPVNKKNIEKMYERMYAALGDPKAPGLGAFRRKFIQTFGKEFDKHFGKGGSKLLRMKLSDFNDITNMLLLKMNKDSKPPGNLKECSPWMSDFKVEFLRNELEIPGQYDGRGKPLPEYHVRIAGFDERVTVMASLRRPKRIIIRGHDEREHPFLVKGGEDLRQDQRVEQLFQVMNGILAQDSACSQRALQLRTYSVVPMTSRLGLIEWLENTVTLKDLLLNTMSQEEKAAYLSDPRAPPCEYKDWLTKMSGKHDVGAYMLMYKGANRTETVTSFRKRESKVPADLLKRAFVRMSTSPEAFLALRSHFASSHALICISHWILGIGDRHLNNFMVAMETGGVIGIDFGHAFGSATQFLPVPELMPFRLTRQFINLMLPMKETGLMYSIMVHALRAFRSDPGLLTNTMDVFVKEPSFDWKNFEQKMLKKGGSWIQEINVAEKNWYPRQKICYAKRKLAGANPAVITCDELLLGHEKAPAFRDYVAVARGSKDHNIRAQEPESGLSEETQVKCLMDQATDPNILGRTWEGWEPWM", "test": "isoTOP-ABPP of compound-treated primary human T cells", "format": "cell-based", "settings": "for R value (DMSO/DMF): PRKDC C4045 (P78527)", "method": "as §1, §2, §3"}, "[4]": {"molecular_target": "WAPAL C160 (Q7Z5K2) (Homo sapiens, UniProt Q7Z5K2)", "test": "Competitive isoTOP-ABPP in situ", "format": "cell-based", "settings": "fragment 2 at 200 μM, MDA-MB-231 cells"}, "[5]": {"molecular_target": "THAP11 C48 (Q96EK4) (Homo sapiens, UniProt Q96EK4)", "sequence (Q96EK4 whole entry, the tested form may be a part)": "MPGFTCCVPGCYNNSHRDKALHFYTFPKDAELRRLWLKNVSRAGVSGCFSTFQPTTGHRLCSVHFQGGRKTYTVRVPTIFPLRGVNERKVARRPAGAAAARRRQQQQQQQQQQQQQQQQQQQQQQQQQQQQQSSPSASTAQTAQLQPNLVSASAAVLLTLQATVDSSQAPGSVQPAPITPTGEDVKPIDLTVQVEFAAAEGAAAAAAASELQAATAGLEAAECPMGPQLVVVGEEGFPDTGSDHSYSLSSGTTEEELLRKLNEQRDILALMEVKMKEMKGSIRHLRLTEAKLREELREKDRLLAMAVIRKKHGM", "test": "Competitive isoTOP-ABPP in situ", "format": "cell-based", "settings": "fragment 2 at 200 μM, MDA-MB-231 cells"}, "[6]": {"molecular_target": "CLTC C870 (Q00610) (Homo sapiens, UniProt Q00610)", "test": "Competitive isoTOP-ABPP in situ", "format": "cell-based", "settings": "fragment 4 at 100 μM, MDA-MB-231 cells"}, "[7]": {"molecular_target": "PGPEPI C149 (Q9NXJ5) (Homo sapiens, UniProt Q9NXJ5)", "test": "Competitive isoTOP-ABPP in situ", "format": "cell-based", "settings": "fragment 4 at 100 μM, MDA-MB-231 cells"}, "[8]": {"molecular_target": "cysteines in MDA-MB-231 and Ramos cells (Homo sapiens, UniProt Q13867)", "test": "Competitive isoTOP-ABPP in situ (fragment-treated cells)", "format": "cell-based", "settings": "200 μM, insitu, 231"}, "[9]": {"molecular_target": "cysteines in MDA-MB-231 and Ramos cells (Homo sapiens, UniProt Q5T1V6)", "test": "Competitive isoTOP-ABPP in situ (fragment-treated cells)", "format": "cell-based", "settings": "200 μM, insitu, 231"}, "[10]": {"molecular_target": "cysteines in MDA-MB-231 and Ramos cells (Homo sapiens, UniProt Q8IV53)", "test": "Competitive isoTOP-ABPP in situ (fragment-treated cells)", "format": "cell-based", "settings": "200 μM, insitu, ramos"}, "[11]": {"molecular_target": "cysteines in MDA-MB-231 and Ramos cells (Homo sapiens, UniProt Q9P0K7)", "test": "Competitive isoTOP-ABPP in situ (fragment-treated cells)", "format": "cell-based", "settings": "100 μM in situ 231"}, "[12]": {"molecular_target": "cysteines in MDA-MB-231 and Ramos cells (Homo sapiens, UniProt P53992)", "test": "Competitive isoTOP-ABPP in situ (fragment-treated cells)", "format": "cell-based", "settings": "200 μM, insitu, 231"}, "[13]": {"molecular_target": "cysteines in MDA-MB-231 and Ramos cells (Homo sapiens, UniProt Q9UHQ1)", "test": "Competitive isoTOP-ABPP in situ (fragment-treated cells)", "format": "cell-based", "settings": "200 μM, insitu, ramos"}, "[14]": {"molecular_target": "cysteines in MDA-MB-231 and Ramos cells (Homo sapiens, UniProt Q8WUM4)", "test": "Competitive isoTOP-ABPP in situ (fragment-treated cells)", "format": "cell-based", "settings": "cysteine Q8WUM4_C90; fragment 200 μM, in situ, 231 (MDA-MB-231) cells"}, "[15]": {"molecular_target": "cysteines in MDA-MB-231 and Ramos cells (Homo sapiens, UniProt Q96IV0)", "test": "Competitive isoTOP-ABPP in situ (fragment-treated cells)", "format": "cell-based", "settings": "cysteine Q96IV0_C309; fragment 200 μM, in situ, ramos cells"}, "[16]": {"molecular_target": "cysteines in MDA-MB-231 and Ramos cells (Homo sapiens, UniProt Q86UV5)", "test": "Competitive isoTOP-ABPP in situ (fragment-treated cells)", "format": "cell-based", "settings": "200 μM, insitu, ramos"}, "[17]": {"molecular_target": "O00541_C272 (Homo sapiens, UniProt O00541)", "test": "Competitive isoTOP-ABPP, cell lysates", "format": "binding", "settings": "500 μm, in-vitro_ramos"}}, "note": "Counter-ions that a name gives are not always drawn.", "data": [{"smiles": "COC(=O)/C=C/C(=O)OC", "note": "[DMF, dimethyl fumarate]", "values": [{"measurement": "IA-alkyne reactivity of PKCθ C14 and C17", "setting": "[1]; 50 μM, 4 h", "value": "blocked"}, {"measurement": "R value (DMSO/DMF)", "setting": "[1]; DMF 10 μM 4h", "value": 1.62}, {"measurement": "R value (DMSO/DMF)", "setting": "[1]; DMF 25 μM 4h", "value": 3.29}, {"measurement": "R value (DMSO/DMF)", "setting": "[1]; DMF 50 μM 2h", "value": 2.92}, {"measurement": "R value (DMSO/DMF)", "setting": "[1]; DMF 50 μM 4h", "value": 4.21}, {"measurement": "IA-alkyne reactivity of PKCθ C322", "setting": "[2]", "value": "unaffected"}, {"measurement": "IA-alkyne reactivity of PRKDC C4045", "setting": "[3]; 50 μM, 4 h", "value": "blocked"}, {"measurement": "R value (DMSO/DMF)", "setting": "[3]; DMF 50 μM 1h", "value": 4.14}, {"measurement": "R value (DMSO/DMF)", "setting": "[3]; DMF 50 μM 2h", "value": 10.53}]}, {"smiles": "COc1ccc2c(c1)CCCN2C(=O)CCl", "note": "[compound 2]", "values": [{"measurement": "isoTOP-ABPP reactivity profile (ratio) 2_200 μM_in-situ_231", "setting": "[4]", "value": 20.0}, {"measurement": "isoTOP-ABPP reactivity profile (ratio) 2_200 μM_in-situ_231", "setting": "[5]", "value": 7.9}]}, {"smiles": "COc1ccc(C2CC(c3cccs3)=NN2C(=O)CCl)cc1", "note": "(centres unmarked) [compound 4]", "values": [{"measurement": "isoTOP-ABPP reactivity profile (ratio) 4_100 μM_in-situ_231", "setting": "[6]", "value": 2.1}, {"measurement": "isoTOP-ABPP reactivity profile (ratio) 4_100 μM_in-situ_231", "setting": "[7]", "value": 20.0}]}, {"smiles": "O=C(CCl)N1CCN(S(=O)(=O)c2ccccc2F)CC1", "note": "[compound 10]", "values": [{"measurement": "isoTOP-ABPP ratio, cysteine Q13867_C73", "setting": "[8]", "value": 4.2}, {"measurement": "isoTOP-ABPP ratio, cysteine Q5T1V6_C414", "setting": "[9]", "value": 11.3}, {"measurement": "isoTOP-ABPP ratio, cysteine Q8IV53_C174", "setting": "[10]", "value": 5.0}]}, {"smiles": "Cn1cc(S(=O)(=O)N2CCOCC2)cc1C(=O)NC(=O)CCl", "note": "[compound 11]", "values": [{"measurement": "isoTOP-ABPP ratio, cysteine Q9P0K7_C973", "setting": "[11]", "value": 0.8}]}, {"smiles": "O=C(CCl)NCCc1c[nH]c2ccccc12", "note": "[compound 13]", "values": [{"measurement": "isoTOP-ABPP ratio, cysteine P53992_C78", "setting": "[12]", "value": 0.7}, {"measurement": "isoTOP-ABPP ratio, cysteine Q9UHQ1_C99", "setting": "[13]", "value": 20.0}]}, {"smiles": "CC(C)CCOCCNC(=O)CCl", "note": "[compound 27]", "values": [{"measurement": "reactivity profile of liganded cysteine Q8WUM4_C90 with fragment electrophile (isoTOP-ABPP ratio)", "setting": "[14]", "value": 0.6}]}, {"smiles": "O=C(CCl)N1CCN(CC(=O)N2CCOCC2)CC1", "note": "[compound 29]", "values": [{"measurement": "reactivity profile of liganded cysteine Q96IV0_C309 with fragment electrophile (isoTOP-ABPP ratio)", "setting": "[15]", "value": 3.0}]}, {"smiles": "C=CC(=O)N(Cc1cccnc1)c1cc(C(F)(F)F)cc(C(F)(F)F)c1", "note": "[compound 31]", "values": [{"measurement": "isoTOP-ABPP ratio, Q86UV5_C39", "setting": "[16]", "value": 1.3}]}, {"smiles": "N#CC(=Cc1ccc(-c2ccccc2Cl)o1)C(N)=O", "note": "[compound 42]", "values": [{"measurement": "isoTOP-ABPP reactivity profile ratio, O00541_C272", "setting": "[17]", "value": 0.9}]}]}
